Data published in ChEMBL document CHEMBL1201862, “PubChem BioAssay data set” (2004).
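Following 48 hours of exposure in 96-well plates, responses at five concentrations were used to interpolate endpoints linearly. At the GI50, growth is halved.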 Activity calls are given as the source filed them. Rule as the data show it: active = GI50 up to about 1.1 µM and inactive = higher. Residues, ends and D or L forms follow the SMILES beside them. *: point of attachment. Boc = CC(C)(C)OC(=O)*

How the values were obtained:
Assay in all cases: NCI tumour cell line growth inhibition, 48 h
OVCAR-4 = tested on: OVCAR-4
NCI-H226 = tested on: NCI-H226
A549 = tested on: A549
T47D = tested on: T47D
SW-620 = tested on: SW-620
LOX IMVI = tested on: LOX IMVI
SNB-19 = tested on: SNB-19
SR = tested on: SR
HT-29 = tested on: HT-29
EKVX = tested on: EKVX
U-251 = tested on: U-251
Malme-3M = tested on: Malme-3M
SK-OV-3 = tested on: SK-OV-3
DU-145 = tested on: DU-145
NCI/ADR-RES = tested on: NCI/ADR-RES
A498 = tested on: A498
MOLT-4 = tested on: MOLT-4
NCI-H522 = tested on: NCI-H522
RPMI-8226 = tested on: RPMI-8226
SF-268 = tested on: SF-268

SMILES	GI50 (OVCAR-4)	GI50 (NCI-H226)	GI50 (A549)	GI50 (T47D)	GI50 (SW-620)	GI50 (LOX IMVI)	GI50 (SNB-19)	GI50 (SR)	GI50 (HT-29)	GI50 (EKVX)	GI50 (U-251)	GI50 (Malme-3M)	GI50 (SK-OV-3)	GI50 (DU-145)	GI50 (NCI/ADR-RES)	GI50 (A498)	GI50 (MOLT-4)	GI50 (NCI-H522)	GI50 (RPMI-8226)	GI50 (SF-268)
CC(C)(C)OC(=O)NC(Cc1ccccc1)C(=O)N[C@H]1c2ccsc2/C(=N/O)[C@H]1O (some centres undefined)	35.2 µM (inactive)	> 100 µM (inactive)	> 100 µM (inactive)	> 100 µM (inactive)	> 100 µM (inactive)	> 100 µM (inactive)	> 100 µM (inactive)	> 100 µM (inactive)	> 100 µM (inactive)	> 100 µM (inactive)	> 100 µM (inactive)	> 100 µM (inactive)	> 100 µM (inactive)	> 100 µM (inactive)	> 100 µM (inactive)	> 100 µM (inactive)	83 µM (inactive)	–	–	–
O=C1O/C(=C\c2ccc(O)cc2)C(c2ccc(O)c(Cl)c2)=C1Br	11.4 µM (inactive)	–	–	17.7 µM (inactive)	15.9 µM (inactive)	42 µM (inactive)	15.7 µM (inactive)	3.94 µM (inactive)	16.4 µM (inactive)	14.1 µM (inactive)	18 µM (inactive)	15.3 µM (inactive)	14 µM (inactive)	12.9 µM (inactive)	11.1 µM (inactive)	16.4 µM (inactive)	11.7 µM (inactive)	6.76 µM (inactive)	10.6 µM (inactive)	13.7 µM (inactive)
Cc1ccc2nc(NC(=O)/C(Cc3nc4ccc(Cl)cc4nc3O)=N\NC(C)(C)C)sc2c1	12.5 µM (inactive)	9.59 µM (inactive)	> 100 µM (inactive)	> 100 µM (inactive)	> 100 µM (inactive)	> 100 µM (inactive)	> 100 µM (inactive)	> 100 µM (inactive)	> 100 µM (inactive)	–	> 100 µM (inactive)	–	> 100 µM (inactive)	> 100 µM (inactive)	> 100 µM (inactive)	> 100 µM (inactive)	> 100 µM (inactive)	–	> 100 µM (inactive)	97.9 µM (inactive)
N#CC(=S)Nc1ccc(F)cc1	28.6 µM (inactive)	78.5 µM (inactive)	33.6 µM (inactive)	24 µM (inactive)	60.8 µM (inactive)	30.8 µM (inactive)	> 100 µM (inactive)	40.6 µM (inactive)	67.8 µM (inactive)	72.3 µM (inactive)	34.4 µM (inactive)	50.2 µM (inactive)	> 100 µM (inactive)	86.7 µM (inactive)	34.2 µM (inactive)	32.7 µM (inactive)	31.3 µM (inactive)	–	8.22 µM (inactive)	96.8 µM (inactive)
COC(CC1(/C=C/O[Si](C(C)C)(C(C)C)C(C)C)C(=O)N(COCC[Si](C)(C)C)c2ccccc21)OC (centres undefined)	20.8 µM (inactive)	> 100 µM (inactive)	36.3 µM (inactive)	> 100 µM (inactive)	37.2 µM (inactive)	20.8 µM (inactive)	33.7 µM (inactive)	21 µM (inactive)	96.4 µM (inactive)	–	31.8 µM (inactive)	–	20.8 µM (inactive)	> 100 µM (inactive)	> 100 µM (inactive)	> 100 µM (inactive)	22.1 µM (inactive)	6.75 µM (inactive)	> 100 µM (inactive)	17 µM (inactive)
S=C(N/N=C/c1ccccn1)N1CCCCCC1	–	–	< 0.0142 µM (active)	< 0.01 µM (active)	< 0.01 µM (active)	< 0.01 µM (active)	0.416 µM (active)	< 0.01 µM (active)	< 0.01 µM (active)	< 0.0294 µM (active)	< 0.01 µM (active)	< 0.0392 µM (active)	< 0.01 µM (active)	0.115 µM (active)	< 0.01 µM (active)	< 0.0391 µM (active)	< 0.01 µM (active)	< 0.0267 µM (active)	< 0.01 µM (active)	< 0.0121 µM (active)
CC(NC(=O)C(NC(=O)OC(C)(C)C)C(C)C)C(=O)N1CCCC1C(=O)NCC(=O)NC(C(=O)NCC(=O)O)C(C)C (centres undefined) (Boc-VAPGVG-OH; configuration not given here)	> 100 µM (inactive)	–	–	> 100 µM (inactive)	> 100 µM (inactive)	> 100 µM (inactive)	> 100 µM (inactive)	> 100 µM (inactive)	> 100 µM (inactive)	> 100 µM (inactive)	> 100 µM (inactive)	> 100 µM (inactive)	> 100 µM (inactive)	> 100 µM (inactive)	> 100 µM (inactive)	> 100 µM (inactive)	> 100 µM (inactive)	> 100 µM (inactive)	> 100 µM (inactive)	> 100 µM (inactive)
COc1cc(/C=C/C(=O)CC(=O)/C=C/c2ccc(O)c(OC)c2)ccc1O [CURCUMIN]	9.33 µM (inactive)	18.8 µM (inactive)	12.8 µM (inactive)	8.36 µM (inactive)	4.19 µM (inactive)	2.72 µM (inactive)	9.42 µM (inactive)	3.28 µM (inactive)	5.09 µM (inactive)	–	4.72 µM (inactive)	14 µM (inactive)	8.91 µM (inactive)	15.7 µM (inactive)	7.26 µM (inactive)	16 µM (inactive)	4.68 µM (inactive)	5.33 µM (inactive)	2.09 µM (inactive)	7.06 µM (inactive)
